Assay results published in PubChem BioAssay AID1918991 (Molecular Pharmacology Branch, DTP, NCI, 2023).
Each block holds one molecule with its values, some of them ahead of it.

Tested on: 186277-243-T-J2-PDC complex spheroid growth
Assay: Anticancer human tumor 186277-243-T-J2-PDC patient-derived colon adenocarcinoma cell line growth inhibition [AhR]
Conditions: for IC50: curve of first compound; for viability, T/C: stronger effect = lower value
Method in brief: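 Complex tumor spheroids co-cultured with HUVEC and human MSC stroma; AhR antagonists tested in combination with standard-of-care and investigational agents. Top concentration at or near clinical Cmax (else 10 microM), half-log dilutions; growth expressed as percent test/control.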

[1] = second compound 0.1 µM, first compound 0.0316 µM
[2] = second compound 0.1 µM, first compound 0.1 µM
[3] = second compound 0.1 µM, first compound 0.316 µM
[4] = second compound 0.1 µM, first compound 1 µM
[5] = second compound 0.316 µM, first compound 0.0316 µM
[6] = second compound 0.316 µM, first compound 0.1 µM
[7] = second compound 0.316 µM, first compound 0.316 µM
[8] = second compound 0.316 µM, first compound 1 µM
[9] = second compound 1 µM, first compound 0.0316 µM
[10] = second compound 1 µM, first compound 0.1 µM
[11] = second compound 1 µM, first compound 0.316 µM
[12] = second compound 1 µM, first compound 1 µM
[13] = second compound 3.16 µM, first compound 0.0316 µM
[14] = second compound 3.16 µM, first compound 0.1 µM
[15] = second compound 3.16 µM, first compound 0.316 µM
[16] = second compound 3.16 µM, first compound 1 µM
[17] = second compound 10 µM, first compound 0.0316 µM
[18] = second compound 10 µM, first compound 0.1 µM
[19] = second compound 10 µM, first compound 0.316 µM
[20] = second compound 10 µM, first compound 1 µM
[21] = second compound 0.1 µM, first compound 3.16 µM
[22] = second compound 0.1 µM, first compound 10 µM
[23] = second compound 0.316 µM, first compound 3.16 µM
[24] = second compound 0.316 µM, first compound 10 µM
[25] = second compound 1 µM, first compound 3.16 µM
[26] = second compound 1 µM, first compound 10 µM
[27] = second compound 3.16 µM, first compound 3.16 µM
[28] = second compound 3.16 µM, first compound 10 µM
[29] = second compound 10 µM, first compound 3.16 µM
[30] = second compound 10 µM, first compound 10 µM
[31] = second compound 0.1 µM, first compound 0.00949 µM
[32] = second compound 0.1 µM, first compound 0.03 µM
[33] = second compound 0.1 µM, first compound 0.0949 µM
[34] = second compound 0.1 µM, first compound 0.3 µM
[35] = second compound 0.316 µM, first compound 0.00949 µM
[36] = second compound 0.316 µM, first compound 0.03 µM
[37] = second compound 0.316 µM, first compound 0.0949 µM
[38] = second compound 0.316 µM, first compound 0.3 µM
[39] = second compound 1 µM, first compound 0.00949 µM
[40] = second compound 1 µM, first compound 0.03 µM
[41] = second compound 1 µM, first compound 0.0949 µM
[42] = second compound 1 µM, first compound 0.3 µM
[43] = second compound 3.16 µM, first compound 0.00949 µM
[44] = second compound 3.16 µM, first compound 0.03 µM
[45] = second compound 3.16 µM, first compound 0.0949 µM
[46] = second compound 3.16 µM, first compound 0.3 µM
[47] = second compound 10 µM, first compound 0.00949 µM
[48] = second compound 10 µM, first compound 0.03 µM
[49] = second compound 10 µM, first compound 0.0949 µM
[50] = second compound 10 µM, first compound 0.3 µM
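Further: spheroids exposed to compounds for seven days before the viability read.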
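Wherever viability, T/C is given: luminescent signal used as a stand-in for viable cell amount; 100% = DMSO vehicle control wells.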

SMILES: CC1COCCN1c1cc(C2(S(C)(=N)=O)CC2)nc(-c2ccnc3[nH]ccc23)n1 (stereo not given) + Cc1cncc(-c2nc(NCCc3c[nH]c4ccccc34)c3ncn(C(C)C)c3n2)c1
IC50 (second compound 0.1 µM): 4.07 µM
IC50 (second compound 0.316 µM): 3.99 µM
IC50 (second compound 1 µM): 3.72 µM
IC50 (second compound 3.16 µM): 2.9 µM
IC50 (second compound 10 µM): 1.3 µM
viability, T/C [1]: 85.5%
viability, T/C [2]: 119%
viability, T/C [3]: 91.6%
viability, T/C [4]: 99.5%
viability, T/C [21]: 62%
viability, T/C [22]: 6.76%
viability, T/C [5]: 96.8%
viability, T/C [6]: 97.2%
viability, T/C [7]: 87.3%
viability, T/C [8]: 106%
viability, T/C [23]: 60.9%
viability, T/C [24]: 7.2%
viability, T/C [9]: 95.4%
viability, T/C [10]: 106%
viability, T/C [11]: 97.3%
viability, T/C [12]: 106%
viability, T/C [25]: 57.1%
viability, T/C [26]: 7.29%
viability, T/C [13]: 105%
viability, T/C [14]: 105%
viability, T/C [15]: 102%
viability, T/C [16]: 105%
viability, T/C [27]: 45.5%
viability, T/C [28]: 8.1%
viability, T/C [17]: 79.2%
viability, T/C [18]: 79%
viability, T/C [19]: 70.1%
viability, T/C [20]: 60.6%
viability, T/C [29]: 18.6%
viability, T/C [30]: 5.52%

SMILES: COc1ccc([C@@H](O)c2cc(-c3ncnc4cc(N5CCOCC5)ccc34)c(F)cc2Cl)nn1 + Cc1cncc(-c2nc(NCCc3c[nH]c4ccccc34)c3ncn(C(C)C)c3n2)c1
IC50 (second compound 0.1 µM): > 10 µM
IC50 (second compound 0.316 µM): > 10 µM
IC50 (second compound 1 µM): > 10 µM
IC50 (second compound 3.16 µM): > 10 µM
IC50 (second compound 10 µM): < 0.0316 µM
viability, T/C [1]: 103%
viability, T/C [2]: 102%
viability, T/C [3]: 104%
viability, T/C [4]: 116%
viability, T/C [21]: 94.2%
viability, T/C [22]: 66.2%
viability, T/C [5]: 109%
viability, T/C [6]: 102%
viability, T/C [7]: 98.3%
viability, T/C [8]: 104%
viability, T/C [23]: 114%
viability, T/C [24]: 64.4%
viability, T/C [9]: 103%
viability, T/C [10]: 103%
viability, T/C [11]: 113%
viability, T/C [12]: 113%
viability, T/C [25]: 99.4%
viability, T/C [26]: 68.7%
viability, T/C [13]: 94%
viability, T/C [14]: 107%
viability, T/C [15]: 115%
viability, T/C [16]: 106%
viability, T/C [27]: 101%
viability, T/C [28]: 55.7%
viability, T/C [17]: 23.3%
viability, T/C [18]: 21.7%
viability, T/C [19]: 20.6%
viability, T/C [20]: 26%
viability, T/C [29]: 16.6%
viability, T/C [30]: 13.2%

SMILES: Nc1ncn(C2CC(O)C(CO)S2)c(=O)n1 (stereo not given) + Cc1cncc(-c2nc(NCCc3c[nH]c4ccccc34)c3ncn(C(C)C)c3n2)c1
IC50 (second compound 0.1 µM): > 0.3 µM
IC50 (second compound 0.316 µM): > 0.3 µM
IC50 (second compound 1 µM): > 0.3 µM
IC50 (second compound 3.16 µM): > 0.3 µM
IC50 (second compound 10 µM): > 0.3 µM
viability, T/C (second compound 0.1 µM, first compound 0.000949 µM): 102%
viability, T/C (second compound 0.1 µM, first compound 0.003 µM): 91.9%
viability, T/C [31]: 95.1%
viability, T/C [32]: 129%
viability, T/C [33]: 148%
viability, T/C [34]: 104%
viability, T/C (second compound 0.316 µM, first compound 0.000949 µM): 89.5%
viability, T/C (second compound 0.316 µM, first compound 0.003 µM): 89.4%
viability, T/C [35]: 104%
viability, T/C [36]: 109%
viability, T/C [37]: 140%
viability, T/C [38]: 105%
viability, T/C (second compound 1 µM, first compound 0.000949 µM): 98.2%
viability, T/C (second compound 1 µM, first compound 0.003 µM): 107%
viability, T/C [39]: 107%
viability, T/C [40]: 140%
viability, T/C [41]: 140%
viability, T/C [42]: 115%
viability, T/C (second compound 3.16 µM, first compound 0.000949 µM): 92.2%
viability, T/C (second compound 3.16 µM, first compound 0.003 µM): 89.9%
viability, T/C [43]: 90%
viability, T/C [44]: 106%
viability, T/C [45]: 121%
viability, T/C [46]: 98.4%
viability, T/C (second compound 10 µM, first compound 0.000949 µM): 79.5%
viability, T/C (second compound 10 µM, first compound 0.003 µM): 80.2%
viability, T/C [47]: 71.8%
viability, T/C [48]: 76.9%
viability, T/C [49]: 70.9%
viability, T/C [50]: 63.3%

Further lines, with some results ahead:

IC50 (second compound 0.1 µM): 0.0798 µM
IC50 (second compound 0.316 µM): 0.0793 µM
IC50 (second compound 1 µM): 0.0809 µM
IC50 (second compound 3.16 µM): 0.0729 µM
IC50 (second compound 10 µM): < 0.00316 µM
SMILES: CC1COCCN1c1cc(-c2ccnn2C)c2ccnc(-c3ccn[nH]3)c2n1 (stereo not given) + Cc1cncc(-c2nc(NCCc3c[nH]c4ccccc34)c3ncn(C(C)C)c3n2)c1
viability, T/C (second compound 0.1 µM, first compound 0.00316 µM): 99%
viability, T/C (second compound 0.1 µM, first compound 0.01 µM): 106%
viability, T/C [1]: 112%
viability, T/C [2]: 36.4%
viability, T/C [3]: 7.55%
viability, T/C [4]: 3.82%
viability, T/C (second compound 0.316 µM, first compound 0.00316 µM): 97.4%
viability, T/C (second compound 0.316 µM, first compound 0.01 µM): 106%
viability, T/C [5]: 122%
viability, T/C [6]: 35.2%
viability, T/C [7]: 8.4%
viability, T/C [8]: 4.07%
viability, T/C (second compound 1 µM, first compound 0.00316 µM): 107%
viability, T/C (second compound 1 µM, first compound 0.01 µM): 90%
viability, T/C [9]: 119%
viability, T/C [10]: 37.4%
viability, T/C [11]: 7.76%
viability, T/C [12]: 5.82%
viability, T/C (second compound 3.16 µM, first compound 0.00316 µM): 95.3%
viability, T/C (second compound 3.16 µM, first compound 0.01 µM): 105%
viability, T/C [13]: 116%
viability, T/C [14]: 29%
viability, T/C [15]: 9.02%
viability, T/C [16]: 5.27%
viability, T/C (second compound 10 µM, first compound 0.00316 µM): 25.3%
viability, T/C (second compound 10 µM, first compound 0.01 µM): 26.8%
viability, T/C [17]: 13.8%
viability, T/C [18]: 6.13%
viability, T/C [19]: 3.4%
viability, T/C [20]: 2.65%

IC50 (second compound 0.1 µM): 0.43 µM
IC50 (second compound 0.316 µM): 0.456 µM
IC50 (second compound 1 µM): 0.482 µM
IC50 (second compound 3.16 µM): 0.38 µM
IC50 (second compound 10 µM): 0.0404 µM
SMILES: O=C(C=Cn1cnc(-c2cc(C(F)(F)F)cc(C(F)(F)F)c2)n1)NNc1cnccn1 + Cc1cncc(-c2nc(NCCc3c[nH]c4ccccc34)c3ncn(C(C)C)c3n2)c1
viability, T/C [31]: 103%
viability, T/C [32]: 111%
viability, T/C [33]: 114%
viability, T/C [34]: 67.2%
viability, T/C (second compound 0.1 µM, first compound 0.949 µM): 13.3%
viability, T/C (second compound 0.1 µM, first compound 3 µM): 4.12%
viability, T/C [35]: 110%
viability, T/C [36]: 105%
viability, T/C [37]: 124%
viability, T/C [38]: 73.2%
viability, T/C (second compound 0.316 µM, first compound 0.949 µM): 13.6%
viability, T/C (second compound 0.316 µM, first compound 3 µM): 4.58%
viability, T/C [39]: 109%
viability, T/C [40]: 123%
viability, T/C [41]: 123%
viability, T/C [42]: 75.2%
viability, T/C (second compound 1 µM, first compound 0.949 µM): 15.4%
viability, T/C (second compound 1 µM, first compound 3 µM): 5.33%
viability, T/C [43]: 117%
viability, T/C [44]: 116%
viability, T/C [45]: 127%
viability, T/C [46]: 60.1%
viability, T/C (second compound 3.16 µM, first compound 0.949 µM): 15.1%
viability, T/C (second compound 3.16 µM, first compound 3 µM): 6.75%
viability, T/C [47]: 67.5%
viability, T/C [48]: 60.2%
viability, T/C [49]: 21.6%
viability, T/C [50]: 7.78%
viability, T/C (second compound 10 µM, first compound 0.949 µM): 3.76%
viability, T/C (second compound 10 µM, first compound 3 µM): 3.02%
